Data reported in patent US20140134136A1, “COMPOSITIONS AND METHODS FOR AUDITORY THERAPY” (MASSACHUSETTS EYE AND EAR INFIRMARY, priority 2012, published 2014).
“Also recorded” adds a separate entry of the source.

Assays:
[1] = system: Atoh1-ER-DsRed fusion protein; assay: Nuclear translocalization assay (DsRed fluorescence of isolated nuclei); assay type: cell-based; conditions: for DsRed fluorescence in the nuclear fraction: HEK cells transfected with CMV-Atoh1-ER-DsRed, p<0.05; for localization of Atoh1-ER-DsRed to the nucleus: HEK cells, graded doses; for time to complete cytoplasmic localization of the fusion protein after removal from the culture media: removal of 4OHT/tamoxifen from culture media
Experimental: Constructs were generated to express inducible Atoh1-ER fusion proteins (FIG. 1).
HEK cells were cultured until 50% confluent in 6-well culture dishes (type) then subjected to transfection using 3:1 target DNA to Fugene 6 Transfection Reagent (ROCHE). […] Cells were then processed for cytosolic and nuclear fractionation (BioVision). The isolated nuclear fraction collected from each of 5 sample wells per condition was mounted to a coverslip and average pixel density from 5 regions of interest (206.5×165.2 pixel at 20× magnification) was measured with a Cy3 ([…]) filter on a Zeiss epifluorescent microscope using MetaMorph software.

[2] = system: Atoh1-ER-DsRed fusion protein; assay: Nuclear localization in electroporated cochlear spheres; assay type: cell-based, mice
Excerpt: (DAPI=blue; DsRed fluorescence=red). […] Yellow box highlights optimal conditions (+=nuclear localization in […] of cells; −/+≈50% nuclear localization; −=>0.10% nuclear localization.
Cochlear derived progenitor cells were generated and floating aggregates (cochlear spheres) propagated as previously described (Oshima et al., Journal of the Association for Research in Otolaryngology, 2007. 8(1): 18-31) with the following modifications. Cochleas were isolated from litters of P0-P3 ROSA26-GFP mice, the organs of Corti were dissected, pooled, trypsinized, triturated, and centrifuged. The pellet was re-suspended in SFM, filtered through a […] cell strainer, and cultured for 5 days in this same media supplemented with growth factors (10 ng/ml of FGF, IGF, EGF, Heparin sulfate). Floating aggregates were collected, centrifuged, triturated using a 100 μl pipette, re-suspended in 300 μl Optimem, and electroporated (8 pulses; 25 V; duration, 50 ms; interval, 100 ms with 2 mg/ml DNA in water, and incubated in 3:1 Fugene 6 overnight) using 50 μg of plasmid DNA. […] Finally, spheres from each of these groups were centrifuged, adhered to glass coverslips by incubation for 2-4 hours at 37° C. on glass coverslips coated with 1:1 poly-lysine/polyornithine, fixed in 4% paraformaldehyde for 20 minutes, washed three times in PBS, and stored at 4° C. for later analysis.

[3] = system: Atoh1 5′ enhancer/promoter region; assay: Luciferase assay of Atoh1 enhancer/promoter binding; assay type: cell-based; conditions: HEK cells stably transfected with Atoh1enhancer-luciferase and transiently with Atoh1-ER-DsRed; 72 hrs, increasing doses
Experimental: The stably transfected HEK cells were transiently transfected with either the cmv.Atoh1-ER-DsRed construct or a cmv.DsRed-ER control construct. […] All cells were also co-transfected with Renilla transfection controls.
The Atoh1 5′ enhancer/promoter region (Helms, Abney et al. 2000) was cloned into the MCS of the pGL3-Promoter Luciferase Reporter Vector (Promega), and was stably expressed on a HEK cell line using selection to […]. These cells were grown until 80% confluent on 6-well plates, and then transiently transfected with either the cmv.Atoh1 control vector, the cmv.Atoh1-ER-DsRed construct, or a cmv.DsRed-ER negative control construct using 3:1 target DNA to Fugene 6 Transfection Reagent. All cells were also co-transfected with Renilla transfection controls. […] Firefly luciferase activity was measured in a manual TD-20/20 Luminometer (Turner Designs).

Atoh1 mRNA = Atoh1 mRNA expression by RT-PCR and qPCR; assay type: cell-based; conditions: HEK cells transiently transfected with Atoh1-ER-DsRed; different doses
Experimental: Transiently transfected HEK cells were incubated with different doses of 4OHT.
Next, total RNA was extracted from the cells by adding 1 ml Trizol reagent (Invitrogen) to each well for 5 min, cells were scraped into a 1.5 ml tube (1 tube/well), incubated with […] chloroform (in hood) for 2 min centrifuged for 20 min at 12,000 g at 4° C., supernatant was collected in a new 1.5 ml tube, incubated with 1:1 equivalent volume of 2-propanol equal volume to supernatant, and centrifuged through the RNeasy mini kit columns at 8000 g for 15 sec. RNA was eluted from the column by adding […] RW1, centrifuging the column at 8000 g 15 s, adding […] washes of RPE2 and re-centrifuging at 8000 g 15 s, adding one spin to dry membrane (10,000 g, 1 min), and eluting the RNA by adding […] RNAse free water into new 1.5 ml tube and centrifuging a final time at 8000 g for 15 s. […]
For quantitative PCR (qPCR) analysis, 300 μL of qPCR Master Mix (Invitrogen) was added to a PCR tube with 300 μL dH2O, which was then divided into 5 tubes (120 μL each). […] Quantitative PCR was performed and the amount of RNA was determined Delta delta Ct measurements were calculated for each treatment group, and then were normalized to fold change from groups incubated in the absence of tamoxifen. […]

Atoh1 protein = assay: Western blot analysis of Atoh1 protein; assay type: cell-based; conditions: transiently transfected HEK cells; different doses for 72 hr
Excerpt: Whole cell protein was collected and processed for Western blot analysis. Positive control samples were transfected with a flag-tagged Atoh1 construct under control of a cmv promoter (flagAtoh1) and negative control samples were transfected with the DsRedER construct.
Control samples were similarly transfected with either DsRed-ER (negative control) or a positive control vector (cmv.flagAtoh1). Cells were lysed, the whole cell protein was collected and processed for Western blot analysis using either anti-Atoh1polyclonal antibody (Developmental Studies Hybridoma Bank) or a polyclonal anti-b-actin antibody (Sigma).

myosin 7a = assay: Myosin 7a immunolabeling in transfected HEI OC1 cells; assay type: cell-based
Experimental: To test this, the expression of myosin 7a, which is a downstream target of Atoh1 signaling, was measured in HEI OC1 cells transfected with the Atoh1-ER-DsRed construct.

[4] = system: alpha and beta isoforms of the estrogen receptor; conditions: cited from earlier work
organs of Corti = assay: Organ of Corti explants electroporated with the construct; assay type: cell-based, mice; conditions: 1 μM tamoxifen
Excerpt: The construct was electroporated into neonatal organs of Corti isolated from transgenic mouse pups that express GFP under control of the 5′ Atoh1 enhancer/promoter.

Atoh1 promoter/enhancer = assay: Comparison of constructs (Atoh1 promoter/enhancer binding, mRNA transcription, protein translation); assay type: cell-based
Excerpt: FIG. 1A-FIG. 1E are schematics depicting constructs used to generate an inducible Atoh1 fusion protein. FIG. 1A depicts the construct termed Flag-Atoh1-ER-DsRed. In order to measure the translocation of the fusion protein between the cytoplasm and […], a construct was engineered to include the DsRed transgene. To aid in the detection of Atoh1 (Atonal homolog 1), several experimental constructs were engineered to include one or two consecutive flag-tagged sequences (Vallier, Mancip et al. 2001). To obtain the tamoxifen sensitive Atoh1 construct, PCR cloning primers were designed so that 1) an EcoRI site was placed on the 5′ end and a Kozac sequence (CACC) was placed upstream of the Atoh1 start codon; 2) the Atoh1 stop codon (TAG) was deleted; 3) the flag tagged Atoh1 sequence was linked to an Estrogen Receptor (ER) sequence by the sequence […] (SEQ ID NO: 1) encoding a polypeptide linker; 4) the ER stop codon (TAG) was deleted; 5) the ER sequence was linked to a DsRed sequence by the sequence […] (SEQ ID NO: 2) encoding a polypeptide linker; and 6) a Not I site was included on the 3′ end. The linker sequences were designed to translate into multiple proline sequences, which provide an increased degree of freedom for the fusion protein subunits. […]

Molecule	localization of Atoh1-ER-DsRed to the nucleus [1]	time to complete cytoplasmic localization of the fusion protein after removal from the culture media [1]	binding to / activation of the enhancer/promoter region of the Atoh1 gene [3]	Atoh1 mRNA expression (Atoh1 mRNA)	preference of binding to estrogen receptor isoforms [4]	further results
CC/C(=C(\c1ccc(O)cc1)c1ccc(OCCN(C)C)cc1)c1ccccc1 [4OHT]	dose-dependent manner	≤ 2 weeks	dose-dependent increase; also recorded: induced activation of the Atoh1 enhancer region	upregulates the expression of Atoh1 in a dose-dependent manner; also recorded: increase in Atoh1 mRNA expression	–	DsRed fluorescence in the nuclear fraction ([1]; 1 nM 4OHT for 72 hrs): 848.0+/−29.33 au; DsRed fluorescence in the nuclear fraction ([1]; 1 mM 4OHT for 72 hrs): 3,200.9+/−156.95 au; nuclear localization of the fusion protein ([2]; cochlear spheres from ROSA26-GFP mice, 1 nM, after 48 hrs): punctate nuclear localization; minimum effective dose ([2]; for 2-7 days (FIG. 3)): 1 nM; Atoh1 protein levels (Atoh1 protein): increased the concentration of cytosolic Atoh1 protein in a dose-dependent manner; also recorded: increase in Atoh1 protein levels; myosin 7a labeling (myosin 7a; HEI OC1 cells transfected with Atoh1-ER-DsRed, differentiating conditions (39° C.), 1 mM 4OHT for three days, p<0.001 vs vehicle): 79%
C[C@]12CC[C@@H]3c4ccc(O)cc4CC[C@H]3[C@@H]1CC[C@@H]2O [17-beta-estradiol]	–	–	–	–	binds equally well to both receptors	–
O=c1c(O)c(-c2ccc(O)c(O)c2)oc2cc(O)cc(O)c12 [Quercetin]	–	–	–	–	selectively binds to the estrogen receptor beta (ERβ)	–
O=C(c1ccc(OCCN2CCCCC2)cc1)c1c(-c2ccc(O)cc2)sc2cc(O)ccc12 [raloxifene]	–	–	–	–	bind preferentially to the alpha receptor	–
CC/C(=C(\c1ccccc1)c1ccc(OCCN(C)C)cc1)c1ccccc1 [tamoxifen]	dose-dependent localization	≤ 2 weeks	dose-dependent increase in binding	increased the expression of Atoh1 in a dose-dependent manner	–	DsRed fluorescence against increasing Tamoxifen concentration ([1]; 1 μM): increased fluorescence compared to higher (100 μM) and lower doses (1 nM); minimum effective dose ([1]; for 2-7 days, HEK cells (FIG. 2)): 1 nM; myosin 7a positive cells within the spheres (myosin 7a; OC1 cells transfected with Atoh1-ER-DsRed, 3 days in differentiating conditions (39° C.)): significant increase; hair cells in electroporated organs of Corti (organs of Corti): supernumerary hair cells
Flag-Atoh1-ER: construct encoding a flag-tagged Atoh1-ER fusion protein without DsRed (SEQ ID NO: 16)	–	–	–	–	–	Atoh1 promoter/enhancer binding, Atoh1 mRNA transcription and Atoh1 protein translation compared with the flag-Atoh1-ER-DsRed construct (Atoh1 promoter/enhancer): on average higher than, but not significantly different from
